Experimental data published in patent publication US10195187B2, “Oxybutynin-xanomeline transdermal therapeutic system combinations” (Chase Pharmaceuticals Corporation, priority 2015, dated 2019).

Legend:
[1] = system: Male Swiss mice; test: Dose-response to xanomeline in a mouse model of diarrhea (fecal pellet count); assay type: in vivo; details: xanomeline i.p. 0.3 to 30 mg/kg
Excerpt: Study 1—Establishment of the Dose-Response to Xanomeline in a Mouse Model of Diarrhea.
Male Swiss mice (4-6 weeks old), N=10 per treatment group were used, and treated intra-peritoneally (i.p.) with either vehicle (vehicle group) or increasing doses of xanomeline, a representative muscarinic agonist. Mice were randomly assigned to one of two experimental groups (vehicle; or increasing doses of xanomeline). Each animal was identified by its group name, cage number, series (day) of experiment, and number (1 to 10) written with permanent ink on the tail. Mice were placed individually in cages without any bedding materials. During the experiment the number of fecal pellets were counted at different time-points, starting one hour before the time of the administration of the test compound (T0), as outlined below:
T−1 h to T0: counting of the accumulated fecal pellets excreted.
T0: administration of the test compound.
T0 to T+2 h: counting of the accumulated fecal pellets excreted.
T+2 h to T+4 h: counting of the accumulated fecal pellets excreted.
The total number of fecal pellets for each mouse was counted over time. An analysis of variance (ANOVA) was performed on the results. […] During the experiment the number of fecal pellets was counted at different time-points as outlined below: […]

[2] = system: Male Swiss mice; test: T-maze continuous alternation task (T-CAT) in mice; assay type: in vivo, mouse
Excerpt: Evaluation of Cognition with Oxybutynin and Xanomeline in the T-maze Alternation Task in Mice
The T-maze continuous alternation task (T-CAT) is useful as model for studying compounds with cognitive enhancing properties. The T-maze consists of 2 choice arms and 1 start arm mounted to a square center. Manual doors are provided to close specific arms during the force choice alternation task. Male Swiss mice (4-6 weeks old), N=10 per treatment group were used, and were pre-treated with:
Thirty minutes later mice were treated with either vehicle or one of 4 doses of xanomeline:
a dose that caused diarrhea.
Mice were randomly assigned to one of the different experimental treatment groups. Each animal was identified by its group name, cage number, series (day) of experiment, and number (1 to 10) written with permanent ink on the tail.
The T-maze apparatus is made of gray Plexiglas with a main stem (55 cm long×10 cm wide×20 cm high) and two arms (30 cm long×10 cm wide×20 cm high) positioned at 90 degree angle relative to the main stem. A start box (15 cm long×10 cm wide) is separated from the main stem by a guillotine door. Horizontal doors are also provided to close specific arms during the force choice alternation task. The experimental protocol consisted of one single session, which started with 1 “forced-choice” trial, followed by 14 “free-choice” trials. In the first “forced-choice” trial, animals were confined for 5 seconds to the start arm and then were released while either the left or the right goal arm was blocked by the horizontal door. Animals then negotiated the maze, eventually entering the open goal arm, and returned to the start position. […] The percentage of alternation over the 14 free-choice trials was determined for each mouse and was used as an index of working memory performance. […] The drug-induced improvement of memory was calculated by setting the respective response of the saline/vehicle as 100% and that of the test group as 0% reversion. […]

[3] = system: patients with Alzheimer disease; details: cited from earlier work
[4] = system: muscarinic receptors; details: oral and iontophoretic patch administration; cited from earlier work
[5] = McCrery and Appell 2006; cited from earlier work
[6] = system: Male Swiss mice; test: Antagonism of xanomeline-induced diarrhea in mice by oxybutynin (fecal pellet count); assay type: in vivo, mouse; details: oxybutynin i.p. 0.3 to 30 mg/kg, 30 min before xanomeline 30 mg/kg
Description: The total number of fecal pellets for each mouse was counted over time. An analysis of variance (ANOVA) was performed on the results. Fisher's Protected Least Significant Difference was used for pairwise comparisons; p values≤0.05 were considered significant. Grubbs' test (http (hypertext transfer protocol) www at graphpad.com/quickcalcs/Grubbs1.cfm) was used to detect outliers for each parameter in each experimental group. […] Mice were placed individually in cages without any bedding materials. During the experiment the number of fecal pellets was counted at different time-points as outlined below:
T0: administration of oxybutinin.
T30 min: administration of vehicle or xanomeline.
T 30 min to T 2.5 h: counting of accumulated fecal pellets excreted.
T+2.5 h to T+4.5 h: counting of accumulated fecal pellets excreted.
The total number of fecal pellets for each mouse was counted over time. An analysis of variance (ANOVA) was performed on the results. Fisher's Protected Least Significant Difference was used for pairwise comparisons. The p value≤0.05 were considered significant. Grubbs' test (http (hypertext transfer protocol) www at graphpad.com/quickcalcs/Gnibbs1.cfm) was used to detect outliers for each parameter in each experimental group.

CCCCCCOc1nsnc1C1=CCCN(C)C1 [xanomeline, 3-[4-(Hexyloxy)-1,2,5-thiadiazol-3-yl]-1,2,5,6-tetrahydro-1-methylpyridine]
diarrhea (number of fecal pellets excreted) [1]: dose-dependently causes diarrhea | ability to perform the T-maze test at the higher dose ([2]; i.p. xanomeline, higher dose (dose that caused diarrhea)): animals were too sick to perform the test | performance in the T-maze (percentage of alternation) ([2]; i.p. xanomeline, mice): dose-dependent increase in performance in the T-maze | cognitive and behavioral symptoms of Alzheimer disease compared to placebo ([3]; 6-month trial, Bodick et al, 1997): significantly improve cognitive and behavioral symptoms of Alzheimer disease | discontinuation rate ([3]; Alzheimer's patient population, Mirza et al. 2003): higher than 50% | side effects ([3]; patients with Alzheimer disease, Bodick et al, 1997): dose-dependent unacceptable side effects, including bradycardia, gastro-intestinal distress, excessive salivation, and sweating

NC(=O)C(c1ccccc1)(c1ccccc1)[C@@H]1CCN(CCc2ccc3c(c2)CCO3)C1 [darifenacin]
effectiveness relative to other muscarinic antagonists in combination with muscarinic agonists [4]: less effective than the other muscarinic antagonists

CCN(CC)CC#CCOC(=O)C(O)(c1ccccc1)C1CCCCC1 (stereo not shown) [oxybutynin, 4-diethylaminobut-2-ynyl 2-cyclohexyl-2-hydroxy-2-phenylethanoate]
crossing of the blood brain barrier [5]: able to cross the blood brain barrier | antagonism of xanomeline-induced diarrhea (fecal pellets) [6]: dose-dependently antagonized the diarrhea induced by xanomeline | ability to perform the T-maze test after oxybutynin pretreatment ([2]; i.p. oxybutynin 30 min before xanomeline): restored the animals' ability to perform the T-maze test
